The values below come from patent publication US5087627A, “Agent for treatment of disorders of the cerebro-neural transmission system” (Santen Pharmaceutical Co., Ltd., priority 1989, dated 1992).

Where a name gives a salt, the structure may show the parent alone. Read-outs that look alike come from different tables or passages of the source.

One test deals with T1, 5-HT2 receptor (Oryctolagus cuniculus, UniProt G1SYA7).
T1 construct: The isolated arteries were helically cut into strips; from tissue; host or cells: thoracic aorta of Japanese white rabbit (helical strips)
As to the kind of experiment: antagonistic test against 5-HT2 using vessel (thoracic aorta) of rabbit, 5-HT-induced contraction. Also noted: species or system tissue, rabbit (Japanese white).

Test [1] deals with PCA - induced amnesia (impairment of memory). As to the kind of experiment: one-trial passive avoidance test in mice, PCA - induced amnesia model.
The subject of test [2] is CXM - induced amnesia (impairment of memory). Also noted: species or system mice. The note with it: mouse, in vivo.
The conditions of test [3]: in words, prior art; cited from earlier work.

T1 sequence (G1SYA7 1-469): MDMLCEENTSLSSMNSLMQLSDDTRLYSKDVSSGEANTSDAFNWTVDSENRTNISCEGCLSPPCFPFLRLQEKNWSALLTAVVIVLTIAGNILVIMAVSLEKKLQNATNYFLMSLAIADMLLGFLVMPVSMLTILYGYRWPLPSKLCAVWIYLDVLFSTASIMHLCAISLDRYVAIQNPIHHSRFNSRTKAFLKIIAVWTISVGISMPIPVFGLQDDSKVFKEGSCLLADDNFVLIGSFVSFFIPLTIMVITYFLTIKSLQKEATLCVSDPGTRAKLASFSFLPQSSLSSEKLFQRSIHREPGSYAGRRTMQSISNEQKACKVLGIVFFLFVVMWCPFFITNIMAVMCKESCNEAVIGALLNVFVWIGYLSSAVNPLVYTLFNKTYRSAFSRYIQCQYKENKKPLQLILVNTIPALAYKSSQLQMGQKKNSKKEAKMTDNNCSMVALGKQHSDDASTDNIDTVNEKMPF
Experimental for 5-HT2 receptor: Therefore, in this test, the efficacy of the Compound was examined using thoracic aorta of rabbit.
Japanese white rabbits were sacrificed by cervical fracture and exsanguinated. Thoracic aortas were exciesd rapidly. The isolated arteries were helically cut into strips, approximately 3 mm wide, and suspended in 20 ml organ bath chambers containing Krebs-Henseleit solution. Resting tensions of aortas were maintained in 1.5 g. The organ bath chambers were maintained at 37° C. and aerated continuously with 95% O2 -5% CO2.
After equilibration, 5-HT (10^-6 M) was added into each organ bath chamber. After the 5-HT-induced contraction was ascertained to be constant and reproducible, each test compound were added and 30 minutes after 5-HT was added again, and their effect on 5-HT induced contraction was examined.
The contraction was measured with various concentrations of the test compound. According to the difference between the contraction caused by pre-treatment with the test compound and by 5-HT alone, the concentration which can inhibit 50% of the contraction caused by 5-HT alone was calculated (IC50).

Take `COc1ccc(CCN2CCN(C(Cc3ccccc3)c3ccncc3)CC2)cc1OC` (racemic) [compound 8, (±)-1-[2-Phenyl-1-(4-pyridyl)ethyl]-4-[2-(3,4-dimethoxyphenyl)ethyl]piperazine dioxalate]: the IC50 at 5-HT2 receptor was determined as 7 µM.
On 5-HT2 receptor, `c1ccc(CC(c2cccnc2)N2CCN(CCOc3ccc4c(c3)OCO4)CC2)cc1` (racemic) [compound 9, (±)-1-[(2-Phenyl)-1-(3-pyridyl)ethyl]-4-[2-(3,4-methylenedioxyphenoxy)ethyl]piperazine dioxalate] came in with an IC50 of 4.8 µM.
Consider `c1ccc(CC(c2ccccc2)N2CCN(CCOc3ccc4c(c3)OCO4)CC2)cc1` (racemic) [compound No. 7, (±)-1-(1,2-Diphenyl)ethyl-4-[2-(3,4-methylenedioxyphenoxy)ethyl]piperazine dihydrochloride], for which the “step-down latency (median)” value in test [1] (mouse, in vivo) came to 155.1 s; in test [2] it was 123.9 s. The compound also had an IC50 against 5-HT2 receptor of 2.7 µM.
Consider `Fc1ccc(CC(c2ccc(F)cc2)N2CCN(CCOc3ccc4c(c3)OCO4)CC2)cc1` (racemic) [compound No. 10, (±)-1-[1,2-Bis(4-fluorophenyl)]ethyl-4-[2-[(3,4-methylenedioxy)phenoxy]ethyl]piperazine dihydrochloride], for which, in test [1] (PCA 5 mg/kg i.p., test compound 1.25 mg/kg p.o., 24 h after training, cut off 300 sec), the “step-down latency (median)” value is 206.3 s. Further, the IC50 at 5-HT2 receptor (rabbit thoracic aorta strips, 5-HT 10^-6 M, 30 minutes pre-treatment, 37° C., read-out: IC50 (concentration which can inhibit 50% of the contraction caused by 5-HT alone)) is 2.1 µM.
As for `CN(C)C(Cc1ccccc1)c1ccccc1` (single isomer, unassigned; (-)) [lefetamine, (-)-N,N-dimethyl-1,2-diphenylethylamine], the analgesic effect result in test [3] was “excellent analgesic effect”.
